{
  "source": "patent US20120289492A1",
  "about": "“METHODS OF TREATING MITOCHONDRIAL DISORDERS USING METALLOPORPHYRINS” (priority 2009, published 2012)",
  "test_system": "kainate-induced epileptogenesis in rats",
  "assay": "Kainate-induced chronic epilepsy development (rat model of temporal lobe epilepsy)",
  "type": "in vivo",
  "experimental": "The rat model of temporal lobe epilepsy is initiated by a single injection of a chemoconvulasant agent which results in spontaneous epileptic seizure arise several days to weeks thereafter. Groups of rats administered vehicle, kainate (a chemoconvulsant used to initiate injury), kainate+AEOL11207 and AEOL11207 were monitored 6 weeks for behavioral seizures and indices of oxidative stress (GSH/GSSG, CoASH/CoASSG). AEOL11207 was administered at an arbitrary dose of 5 mg/kg, s.c. daily beginning 6 hr after injection of kainate (11 mg/kg). All of the rats in both groups experienced SE after kainate injection, and there was no difference in any of the characteristics of SE between the groups. […] The time to develop chronic epilepsy (latency to chronic epilepsy), spontaneous seizure frequency, severity and duration was determined.\nIn another exemplary experiment, pharmacological removal of ROS was examined for its inhibition on kainate-induced epileptogenesis. A pilot was performed in which groups of rats administered vehicle (n=4), kainate (n=6), kainate+AEOL11207(n=6) and AEOL11207 (n=4) were monitored 6 weeks for behavioral seizures (Table 1) and indices of oxidative stress (GSH/GSSG, CoASH/CoASSG) (FIG. 6).\nAEOL11207 was administered at a dose of 5 mg/kg, s.c. daily beginning 6 hr after injection of kainate ([…]). All of the rats in both groups experienced SE after kainate injection, and there was no difference in any of the characteristics of SE between the groups. […] The time to develop chronic epilepsy (latency to chronic epilepsy), spontaneous seizure frequency, severity and duration was determined as previously described. […] None of the rats in the control or AEOL11207 alone groups developed seizures. […] FIG. 6 and Table 1 illustrate the effect of AEOL11207 on kainate-induced chronic epilepsy development (n=6/group) and oxidative stress (n=4-6 per group).",
  "key": {"[1]": {"conditions": "kainate rats, compared to controls"}, "[2]": {"conditions": "the 2 rats of the kainate+AEOL11207 group that developed epilepsy"}},
  "data": [
    {"smiles": "COC(=O)c1c2nc(c(C(F)(F)F)c3ccc([n-]3)c(C(=O)OC)c3nc(c(C(F)(F)F)c4ccc1[n-]4)C=C3)C=C2.[Cl-].[Mn+3]", "note": "[AEOL11207]", "values": [
      {"measurement": "rats that developed seizures", "setting": "AEOL11207 alone group, no kainate", "value": "None"},
      {"measurement": "rats that developed chronic epilepsy during 6 weeks", "setting": "in comparison with two-thirds in the kainate group", "value": "one-third"},
      {"measurement": "Duration of seizures (sec.)", "setting": "kainate + 5 mg/kg s.c. daily, kainate alone 33.3 ± 1.9", "value": "28.3 ± 2.2*p < 0.05 sec."},
      {"measurement": "CoASH/CoASSG ratio", "setting": "[1]", "value": "significantly improved"},
      {"measurement": "GSH/GSSG ratio", "setting": "[1]", "value": "significantly improved"},
      {"measurement": "decrease of seizure duration", "setting": "[2]", "value": "~15", "unit": "%"},
      {"measurement": "number of seizures per animal", "setting": "[2]", "value": "no changes"}
    ]}
  ]
}
